The term EC50 denotes the concentration at which the effect is half-maximal. A lower EC50 goes with an effect from little substance.

The subject of assay [1] is capsid-associated HBV DNA. Kind of assay: Capsid-associated HBV DNA and DNA replication intermediates in AML12HBV10 cells. To be noted: 2 days, FIG. 1 panels D and E. It is filed as cell-based, Hepatitis B virus (HBV). The protocol: FIG. 1. Antiviral mechanism of the compounds of the present invention. AML12HBV10 cells were left untreated (NT) or treated with the indicated concentrations of the compounds of the disclosure Compound 6 and Compound 19, respectively, for 2 days. Bay-4109 (3 µM) or AT-61 (25 µM) served as positive controls. (A) Intracellular viral RNA was determined by Northern blot hybridization. Ribosomal RNA served as a loading control. (B) The total amounts of nucleocapsids were determined by a particle gel assay. (C) Encapsidated pgRNA were extracted and measured by Northern blot. (D) Nucleocapsid-associated HBV DNA was quantified by alkaline-treatment of nucleocapsids on the membrane following the particle gel assay and hybridized with a HBV-specific riboprobe. (E) HBV DNA replication intermediates were extracted and determined by Southern blot hybridizations.
Procedures of viral capsids and nucleocapsid-associated DNA analysis: AML12HB10 cells were lysed by addition of 300 μl buffer containing 10 mM Tris-HCl (pH7.6), 100 mM NaCl, 1 mM EDTA and 0.1% NP-40 to each well of 12-well plate. Cell debries were removed by centrifugation at 5000 g for 10 minutes. Ten microliters of the clarified cell lysates were fractionated by electrophoresis through nondenaturing 1% agarose gels and transferred to a nitrocellulose filter by blotting with TNE buffer (10 mM Tris-HCl, pH7.6; 150 mM NaCl and 1 mM EDTA). HBV capsids were detected by probing the membrane with an antibody against HBV core protein (DAKO). […] To detect capsid associated HBV DNA, the membrane were treated with buffer containing 0.5N NaOH and 1.5 M NaCl for 5 minutes and followed by neutralization with buffer containing 1 M TRIS-HCl and 1.5M NaCl for 5 minutes. The viral DNA was detected by hybridization with a α-^32P-UTP (800 Ci/mmol, Perkin Elmer) labeled minus strand specific full-length HBV riboprobe (Xu et al.).
To analyze the HBV DNA replication intermediates, cells were lysed by adding into each well of the 12-well plates 0.5 ml of lysis buffer containing 10 mM Tris-HCl (pH 8.0), 1 mM EDTA, 1% NP40 and 2% sucrose and incubating at 37° C. for 10 minutes. Cell debris and nuclei were removed by centrifugation and the supernatant was mixed with 130 μl of 35% polyethylene glycol (PEG) 8000 containing 1.5 M NaCl. After 1 hour incubation in ice, viral nucleocapsids were pelleted by centrifugation at 6,000×g for 5 minutes at 4° C., followed by 1 hour digestion at 37° C. in 400 μl of digestion buffer containing 0.5 mg/ml pronase (Calbiochem), 0.5% SDS, 150 mM NaCl, 25 mM Tris-HCl (pH 8.0) and 10 mM EDTA. The digestion mixture was extracted twice with phenol and DNA was precipitated with ethanol, dissolved in TE buffer (10 mM Tris-HCl, pH 8.0; 0.1 mM EDTA). […]

Assay [2] concerns HBV replication in HepDES19 cells. As to the kind of experiment: Antiviral activity in HepDES19 cells (core-associated HBV DNA, Southern blot). It is filed as cell-based, Hepatitis B virus (HBV). To be noted: Hepatitis B virus, HepDES19, 144 h, concentration that reduces core-associated HBV DNA by 50%; 6 days; serial dilution 10 μM to 0.018 μM. An excerpt:
Determination of antiviral activity of compounds of the disclosure, as presented in Table 1, in human hepatoma-derived cell lines: To further confirm the antiviral activity of the compounds of the disclosure against HBV in human hepatocyte-derived cells, HepDES19 cells, a human hepatoma cell line supporting HBV replication in a tetracycline inducible manner (Guo et al., 2007), seeded into 12-well plates at a density of 5×10^5 cells per well and cultured in DMEM/F12 media with 10% fetal bovine serum and 1 μg/ml tetracycline. Two days after seeding, the cells were mock-treated or treated with a serial dilution of compounds of the disclosure, ranging from 10 μM to 0.018 μM, for 6 days in the absence of tetracycline. Upon the completion of treatment, cells were lysed by adding into each well of the 12-well plates 0.5 ml of lysis buffer containing 10 mM Tris-HCl (pH 8.0), 1 mM EDTA, 1% NP40 and 2% sucrose and incubating at 37° C. for 10 minutes. Cell debris and nuclei were removed by centrifugation and the supernatant was mixed with 130 μl of 35% polyethylene glycol (PEG) 8000 containing 1.5 M NaCl. After 1 hour incubation in ice, viral nucleocapsids were pelleted by centrifugation at 6,000×g for 5 min at 4° C., followed by 1 hour digestion at 37° C. in 400 μl of digestion buffer containing 0.5 mg/ml pronase (Calbiochem), 0.5% SDS, 150 mM NaCl, 25 mM Tris-HCl (pH 8.0) and 10 mM EDTA. The digestion mixture was extracted twice with phenol and DNA was precipitated with ethanol, dissolved in TE buffer (10 mM Tris-HCl, pH 8.0; 0.1 mM EDTA). One half of the DNA sample from each well was resolved by electrophoresis into a 1.5% agarose gel. The gel was then subjected to denaturation in a solution containing 0.5 M NaOH and 1.5 M NaCl, followed by neutralization in a buffer containing 1 M Tris-HCl (pH7.4) and 1.5 M NaCl. DNA was then blotted onto Hybond-XL membrane (GE Health care) in 20×SSC buffer. The amounts of cytoplasmic HBV core-associated HBV DNA were determined by Southern blot hybridization and the antiviral efficacy of a compound was expressed as its concentration that reduce the amount of HBV DNA by 50% (EC50) or 90% (EC90).

SMILES strings stand for the structures.

Consider `O=C(Nc1cccc(Cl)c1)c1scc2c1OCCO2` [Entry 6], for which the “capsid-associated HBV DNA / DNA synthesis” value in assay [1] was “reduced encapsidated pgRNA and capsid-associated HBV DNA in a dose-dependent manner”. For the same compound, the EC50 in assay [2] came out at 13.5 µM.
